Read-outs that look alike come from different tables or passages of the source. Where a SMILES comes first, the peptide text is derived from it. [ ]: non-standard residue; d: D form. The star is where a group is joined. X1 = OC[C@H]1O[C@@H](O[C@H]2[C@H](O)[C@@H](O)[C@H](*)O[C@@H]2CO)[C@H](O)[C@@H](O)[C@H]1O; Nle = CCCC[C@H](N)C(=O)O
Tests used:
[1] = PWR membrane partitioning into receptor-free egg phosphatidylcholine membranes; type: physicochemical
[2] = Time-locked brain microdialysis and blood sampling pharmacokinetics; conditions: for Brain Dialysate: AUC / Brain Dialysate: Cmax / Brain Dialysate: Tmax: 3 mg/kg IP, striatal microdialysis 0-60 min; for Brain Dialysate: AUC: TES2300 and TES2320 co-injected, estimated concentration by probe recovery; for Brain Dialysate: AUC / Brain Dialysate: Cmax: LC-MS/MS, mean ± SEM; for Brain Dialysate: Cmax: estimated by probe recovery
Description: (§1) Mice (PN56-70) were anesthetized with isoflurane (1%) mixed with medical grade oxygen (0.75 L/min). Two incisions were made: a 0.5 cm incision in between the scapulae and a 1-cm ventral neck incision right of midline. The right carotid artery was isolated, ligated cranially with 4-0 silk, and temporarily occluded at the caudal end of the vessel with a micro clamp. A small incision was made into the carotid artery and PE-10 tubing, preflushed with heparin/glycerol (500 IU/ml, 50:50) and connected to a 28-gauge PinPort^TM (PNP3F28; Instech, Plymouth Meeting, PA), was advanced toward the heart. The clamp was released, the caudal ligature secured the catheter, and the catheter was tunneled subcutaneously to the scapular incision. Both incisions were closed with staples. The mouse was immediately transferred to a stereotaxic frame to implant the microdialysis probe.
(§2) A midsagittal skull incision was followed by a craniotomy (AP +0.5 mm, ML +2.0 mm from bregma). The dura was removed and a microdialysis probe (CMA12, 8309664, 4 mm membrane, 100 kDa cutoff; HBio, Holliston, MA) was inserted into the striatum (DV −5.0 mm).
(§3) Microdialysis probes were primed with artificial cerebrospinal fluid aCSF (15 mM Tris HCl, 10 mM Tris base, 126 mM NaCl, 2.5 KCl, 1.2 mM NaH2PO4, 2mM Na2SO4, and adjusted pH to 7.4) containing 0.05% bovine serum albumin (BSA) at a rate of 1 μL/minute using a two channel dual syringe pump (Fusion 101A Syringe Pump; Chemyx, Stafford, TX) for one-hour and then placed into the striatum at the coordinates listed above for 30-minutes prior to collecting baseline dialysate. Using the other pump channel, the preservation solution containing 150 ng/mL DADLE ([D-Ala2, D-Leu5]-Enkephalin; 10% acetic acid in 0.05% BSA in aCSF as an internal standard) is combined with the dialysate immediately via a micro-Tee at a flow rate of 1 μL/min (Figure 2A.). […] Dialysate was collected at −10, +10, +20, +30, +40, +50, and +60 minutes. Blood was collected at −5, +1, +5, +15, +25, +35, +45, and +55 minutes to correspond to the midpoint of the dialysate fraction. To separate plasma from whole blood, each sample was collected in ethylenediamine tetraacetic acid capillary tubes (CT-CB300-K2EDTA; Sarstedt, Nümbrecht, Germany), inverted repeatedly for 30 seconds, and centrifuged for 5 minutes at 2,500 x g in a refrigerated centrifuge (Galaxy Mini Centrifuge; VWR, Radnor, PA).
(§4) Biological sample preparation: Plasma samples (20 µL) were mixed with 20 µL of an internal standard working solution containing 150 ng/mL (DADLE) in 10% acetic acid. To precipitate proteins in both plasma and dialysate, 120 µL of ice-cold methanol was added to the plasma mixture and the dialysate samples (20 µL, premixed with preservation solution). After vortexing for 30 seconds, samples were centrifuged at 8,000 x g for 10-minutes at 4°C. The supernatant was evaporated using a Savant Speedvac concentrator. Dialysate and plasma samples were reconstituted in 20 μL of diluent (5% methanol and 0.1% formic acid in nanopure water).
(§5) Liquid chromatography and mass spectrometry: Samples were injected into the Thermo Fisher Scientific UHPLC-MS/MS TSQ system. Separation was achieved on an ACQUITY UPLC HSS T3 C18 Column (100 Å, 1.8 µm, 2.1 × 100 mm) and VanGuard pre-column (HSS T3 1.8 μm, 2.1 × 5 mm) and a HyperSep Retain PEP trap column (2.1 × 10 mm) with the column temperature set at 40 °C. We used a water-acetonitrile gradient with a flow rate of 0.2 mL/min and a total run time of 25. The mobile phases used were A: 0.1% v/v formic acid in deionized water and B: 0.1% v/v formic acid in acetonitrile, with the following conditions: 0 to 1 min (2 %B diverted to waste), 1.0 to 1.2 min (5% B), 1.2 min to 6 min (15% B), 6 min to 11 min (30% B), 11 min to 12.5 min (95% B), 12.5 min to 18 min (95% B), 18 min to 18.5 min (5 %B) 18.5 min to 23.5 min (5% B), 23.5 min to 25 min (2 %B). Injection volumes of 10 µL for dialysate and 5 µL for the plasma sample were used.

human PAC1 receptor = target: T1, human PAC1 receptor (Homo sapiens, UniProt P41586); test: biochemical
T1 sequence (P41586 21-468): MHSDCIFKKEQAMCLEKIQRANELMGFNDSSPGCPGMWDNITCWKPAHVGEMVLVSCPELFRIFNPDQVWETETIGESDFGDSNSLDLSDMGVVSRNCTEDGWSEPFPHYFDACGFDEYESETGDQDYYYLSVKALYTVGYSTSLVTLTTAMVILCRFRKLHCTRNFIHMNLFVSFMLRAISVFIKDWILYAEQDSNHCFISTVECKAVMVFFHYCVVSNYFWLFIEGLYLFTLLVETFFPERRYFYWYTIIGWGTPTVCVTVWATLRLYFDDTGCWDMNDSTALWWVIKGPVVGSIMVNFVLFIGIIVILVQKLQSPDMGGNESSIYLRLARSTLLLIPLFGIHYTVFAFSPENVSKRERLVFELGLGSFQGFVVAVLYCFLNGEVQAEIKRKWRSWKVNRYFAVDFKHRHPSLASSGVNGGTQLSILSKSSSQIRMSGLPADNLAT
Description: Plasmon Waveguide Resonance (PWR) spectroscopy, an enhanced technology related to Surface Plasmon Resonance (SPR) is capable of monitoring molecular anisotropy and measuring mass and structural changes in real time along with molecular interactions with receptor in the lipid bilayer. PWR was utilized to quantify label-free ligand binding affinities. Intact cell membranes containing human PAC1 receptors (purified and isolated from CHO cells, as described below) were immobilized onto the silica surface of a PWR prism element.
The prism was integrated into a PWR spectrometer system (Mainline Scientific, Malvern, PA). […] Binding events, along with any associated conformational shifts in the receptor or lipid matrix, were directly monitored via the angular resonance shifts of parallel (p-polarized) and perpendicular (s-polarized) light.

LHb neurons = test: LHb neuronal excitability, intrinsic properties, rebound bursting, Ih and M-currents in slices after in vivo treatment; set-up: species or system male C57BL/6 mice; conditions: for effect on mTBI-induced LHb hyperexcitability (APs on depolarization): vs mTBI+vehicle P<0.0001, 2-way ANOVA
[3] = tested on: male C57BL/6 mice, repetitive closed-head mTBI
VPAC1 receptors = conditions: cited from earlier work
in vivo = conditions: C57Bl/6J, mouse, ip, 3 mg/kg
Description: as §1, §2, §3, §4, §5

[4] = C57Bl/6J mice, co-injected, n=4, SEM
[5] = C57Bl/6J mice, co-injected, n=4
[6] = C57Bl/6J, mouse, plasma, ip, 3 mg/kg, SEM
[7] = early intervention, 10 mg/kg i.p. x5
[8] = late intervention, single 10 mg/kg i.p.
[9] = C57Bl/6J mice, 3 mg/kg IP each, co-injected, 0-60 min, n=4, ratio paired t-test

## CCCC[C@H](NC(=O)[C@H](CCC(N)=O)NC(=O)[C@H](CCCCN)NC(=O)[C@H](CCCNC(=N)N)NC(=O)[C@H](Cc1ccc(O)cc1)NC(=O)[C@H](CCCNC(=N)N)NC(=O)[C@H](CO)NC(=O)[C@H](Cc1ccc(O)cc1)NC(=O)[C@H](CO)NC(=O)[C@H](CC(=O)O)NC(=O)[C@@H](NC(=O)[C@H](Cc1ccccc1)NC(=O)[C@@H](NC(=O)CNC(=O)[C@H](CC(=O)O)NC(=O)[C@H](CO)NC(=O)[C@@H](N)Cc1c[nH]cn1)[C@@H](C)CC)[C@@H](C)O)C(=O)N[C@@H](C)C(=O)N[C@H](C(=O)N[C@@H](CCCCN)C(=O)N[C@@H](CCCCN)C(=O)N[C@@H](Cc1ccc(O)cc1)C(=O)N[C@@H](CC(C)C)C(=O)N[C@@H](CO)C(N)=O)C(C)C [TES2300] (H-HSDGIFTDSYSRYRKQ[Nle]AVKKYLS-NH2; N-terminus assumed)
[1]; PWR, PC bilayers, unglycosylated variant vs TES2320
  affinity for PC bilayers relative to TES2320: ten fold higher affinity
[1]; as quoted in the pharmacokinetics section, membrane not specified, read-out: Kd, affinity for the membrane
  Kd: 114 pM
[2]; C57Bl/6J mice, n=4, SEM
  Brain Dialysate: AUC: 703 ± 338 ng·min/mL
[2]; [4]
  Brain Dialysate: Cmax: 64 ± 21 ng/mL
[2]; [5]
  Brain Dialysate: Tmax: 8 min
[2]; C57Bl/6J, mouse, brain dialysate / plasma, ip, 3 mg/kg
  Kp: 0.513
[2]; C57Bl/6J, mouse, plasma, ip, 3 mg/kg
  Tmax: 4 min
[2]; [6]
  AUC(0-t): 22.8 ng·h/mL
  Cmax: 106 ± 25 ng/mL
  half-life: 8 ± 4 min

## CCCC[C@H](NC(=O)[C@H](CCC(N)=O)NC(=O)[C@H](CCCCN)NC(=O)[C@H](CCCNC(=N)N)NC(=O)[C@H](Cc1ccc(O)cc1)NC(=O)[C@H](CCCNC(=N)N)NC(=O)[C@H](CO)NC(=O)[C@H](Cc1ccc(O)cc1)NC(=O)[C@H](CO)NC(=O)[C@H](CC(=O)O)NC(=O)[C@@H](NC(=O)[C@H](Cc1ccccc1)NC(=O)[C@@H](NC(=O)CNC(=O)[C@H](CC(=O)O)NC(=O)[C@H](CO)NC(=O)[C@@H](N)Cc1c[nH]cn1)[C@@H](C)CC)[C@@H](C)O)C(=O)N[C@@H](C)C(=O)N[C@H](C(=O)N[C@@H](CCCCN)C(=O)N[C@@H](CCCCN)C(=O)N[C@@H](Cc1ccc(O)cc1)C(=O)N[C@@H](CC(C)C)C(=O)N[C@@H](CO[C@@H]1O[C@H](CO)[C@@H](O[C@@H]2O[C@H](CO)[C@H](O)[C@H](O)[C@H]2O)[C@H](O)[C@H]1O)C(N)=O)C(C)C [TES2320] (H-HSDGIFTDSYSRYRKQ[Nle]AVKKYLS(X1)-NH2; N-terminus assumed)
Human PAC1 receptor
  Kd: 4.5 pM
[1]; PWR, receptor-free egg phosphatidylcholine (eggPC) control membranes, read-out: Kd, baseline membrane partitioning affinity
  Kd: 1350 pM
LHb neurons; [7]
  effect on mTBI-enhanced Ih currents in LHb neurons: insufficient to prevent this Ih enhancement
  effect on mTBI-reduced M-currents in LHb neurons: Neither early nor late TES2320 intervention in mTBI mice normalized this reduction
LHb neurons; early intervention, 10 mg/kg i.p. x5, n=85 cells/13 mice
  effect on mTBI-induced LHb hyperexcitability (APs on depolarization): normalized this hyperexcitability to sham levels
LHb neurons; early intervention, 10 mg/kg i.p. x5, vs mTBI+vehicle p<0.01, 2-way ANOVA
  effect on mTBI-induced hyperpolarization-induced rebound bursting: normalize this mTBI-induced increase in rebound bursting
LHb neurons; [8]
  effect on mTBI-induced hyperpolarization-induced rebound bursting: no effect
  effect on mTBI-reduced M-currents in LHb neurons: Neither early nor late TES2320 intervention in mTBI mice normalized this reduction
LHb neurons; late intervention, single 10 mg/kg i.p., n=31 cells/5 mice
  effect on mTBI-induced LHb hyperexcitability (APs on depolarization): normalized this hyperexcitability to sham levels
LHb neurons; late intervention, single 10 mg/kg i.p., vs mTBI+vehicle p<0.05, one-way ANOVA
  fast afterhyperpolarization (fAHP) amplitude of LHb neurons: significantly diminished
LHb neurons; late intervention, single 10 mg/kg i.p., vs sham+vehicle p<0.0001
  effect on mTBI-enhanced Ih currents in LHb neurons: exaggerated this effect
[3]; early intervention, 10 mg/kg i.p. x5, n=12
  total grooming time, sucrose splash test: no effect
[3]; early intervention, 10 mg/kg i.p. x5, n=12, vs mTBI+vehicle p<0.05, one-way ANOVA
  latency to groom, sucrose splash test: effective in preventing the prolonged grooming latency
[3]; late intervention, single 10 mg/kg i.p., n=11, vs sham or early TES2320 p<0.01
  latency to groom, sucrose splash test: continued to exhibit increased grooming latency
[3]; mouse, in vivo, ip, 10 mg/kg
  total grooming time, sucrose splash test: significantly decreased the total grooming time
VPAC1 receptors
  functional potency at VPAC1 receptors: picomolar functional potency
In vivo
  Tmax: 10 min
In vivo; SEM
  AUC(0-t): 101 ng·h/mL
  Cmax: 313 ± 62 ng/mL
  half-life: 13 ± 6 min
[2]; [9]
  fold increase of AUC over TES2300 in the CSF (brain dialysate): 1.43 fold
  fold increase of AUC over TES2300 in the plasma: 4.73 fold
[2]; C57Bl/6J mice, n=4, SEM
  Brain Dialysate: AUC: 1071 ± 574 ng·min/mL
[2]; [4]
  Brain Dialysate: Cmax: 74 ± 22 ng/mL
[2]; [5]
  Brain Dialysate: Tmax: 8 min

Reference: publication doi:10.64898/2025.12.05.692609v2, “Early intervention with a PACAP lactoside following repetitive mild traumatic brain injury prevents persistent LHb hyperactivity and motivational deficits in male mice” (bioRxiv, 2025)
